In ChEMBL document CHEMBL1138895, “Synthesis and antibacterial activity of nocathiacin I analogues” (Bioorg Med Chem Lett, 2006):
Values after ≈ are worked out from the molar mass of the structure shown.

Legend:
[1] = Solubility at pH 3.8; assay type: physicochemical; settings: buffer
Staphylococcus aureus = experiment: Antibacterial activity against methicillin-sensitive Staphylococcus aureus A15090; assay type: functional
Enterococcus faecalis = experiment: Antibacterial activity against […] A20688; assay type: functional
Streptococcus pneumoniae = experiment: Antibacterial activity against penicillin resistant Streptococcus pneumoniae A28272; assay type: functional
Mus musculus = species: Mus musculus; experiment: Activity against Staphylococcus aureus A15090 infected ICR mouse after 8 days; assay type: functional; settings: 192 h, read-out: PD50
[2] = Solubility at pH 3.4; assay type: physicochemical; settings: buffer
[3] = Solubility at pH 3.1; assay type: physicochemical; settings: buffer
[4] = Solubility at pH 4.0; assay type: physicochemical; settings: buffer
[5] = Solubility at pH 3.3; assay type: physicochemical; settings: buffer
[6] = Solubility at pH 2.8; assay type: physicochemical; settings: buffer
[7] = Solubility at pH 8.1; assay type: physicochemical; settings: buffer
[8] = Solubility at pH 8.4; assay type: physicochemical; settings: buffer
[9] = Solubility at pH 3.5; assay type: physicochemical; settings: buffer
[10] = Solubility at pH 8.7; assay type: physicochemical; settings: buffer

CO/C(C)=C1/NC(=O)[C@H]([C@@H](C)O)NC(=O)c2csc(n2)-c2cc(O)c(-c3nc(C(=O)N[C@@H](C)C(=O)NCc4cc(O)cc(O)c4)cs3)nc2-c2csc(n2)[C@@H]2COC(=O)c3c4c5c(cccc5n3O)COC(=O)[C@@H](O[C@H]3C[C@](C)(O)[C@H](N(C)C)[C@H](C)O3)[C@@H](OC4)[C@H](NC(=O)c3csc1n3)c1nc(cs1)C(=O)N2
solubility [1]: < 0.3 µg/mL
MIC (Staphylococcus aureus): 1 µg/mL (≈ 0.64 µM)
MIC (Enterococcus faecalis): 2 µg/mL (≈ 1.28 µM)
MIC (Streptococcus pneumoniae): 0.25 µg/mL (≈ 0.16 µM)

CO/C(C)=C1/NC(=O)[C@H]([C@@H](C)O)NC(=O)c2csc(n2)-c2cc(O)c(-c3nc(C(=O)N[C@@H](C)C(=O)N(CCO)CCO)cs3)nc2-c2csc(n2)[C@@H]2COC(=O)c3c4c5c(cccc5n3O)COC(=O)[C@@H](O[C@H]3C[C@](C)(O)[C@H](N(C)C)[C@H](C)O3)[C@@H](OC4)[C@H](NC(=O)c3csc1n3)c1nc(cs1)C(=O)N2
MIC (Staphylococcus aureus): 0.25 µg/mL (≈ 0.164 µM)
MIC (Enterococcus faecalis): 0.5 µg/mL (≈ 0.327 µM)
ED50 (Mus musculus): > 10 mg/kg
solubility [2]: > 1200 µg/mL
MIC (Streptococcus pneumoniae): 0.25 µg/mL (≈ 0.164 µM)

CO/C(C)=C1/NC(=O)[C@H]([C@@H](C)O)NC(=O)c2csc(n2)-c2cc(O)c(-c3nc(C(=O)N[C@@H](C)C(=O)N(C)CCO)cs3)nc2-c2csc(n2)[C@@H]2COC(=O)c3c4c5c(cccc5n3O)COC(=O)[C@@H](O[C@H]3C[C@](C)(O)[C@H](N(C)C)[C@H](C)O3)[C@@H](OC4)[C@H](NC(=O)c3csc1n3)c1nc(cs1)C(=O)N2
MIC (Staphylococcus aureus): 0.06 µg/mL (≈ 0.0401 µM)
solubility [3]: 2300 µg/mL (≈ 1540 µM)
solubility [4]: 2300 µg/mL (≈ 1540 µM)
MIC (Enterococcus faecalis): 0.03 µg/mL (≈ 0.02 µM)
ED50 (Mus musculus): 1.65 mg/kg
MIC (Streptococcus pneumoniae): 0.003 µg/mL (≈ 0.002 µM)

CO/C(C)=C1/NC(=O)[C@H]([C@@H](C)O)NC(=O)c2csc(n2)-c2cc(O)c(-c3nc(C(=O)N[C@@H](C)C(=O)N4CCC(P(=O)(OC)OC)CC4)cs3)nc2-c2csc(n2)[C@@H]2COC(=O)c3c4c5c(cccc5n3O)COC(=O)[C@@H](O[C@H]3C[C@](C)(O)[C@H](N(C)C)[C@H](C)O3)[C@@H](OC4)[C@H](NC(=O)c3csc1n3)c1nc(cs1)C(=O)N2
MIC (Staphylococcus aureus): 0.015 µg/mL (≈ 0.00928 µM)
solubility [5]: > 3000 µg/mL
MIC (Enterococcus faecalis): 0.03 µg/mL (≈ 0.0186 µM)
MIC (Streptococcus pneumoniae): 0.015 µg/mL (≈ 0.00928 µM)

CO/C(C)=C1/NC(=O)[C@H]([C@@H](C)O)NC(=O)c2csc(n2)-c2cc(O)c(-c3nc(C(=O)N[C@@H](C)C(=O)NCCCOC4O[C@H](CO)[C@@H](O)[C@H](O)[C@H]4O)cs3)nc2-c2csc(n2)[C@@H]2COC(=O)c3c4c5c(cccc5n3O)COC(=O)[C@@H](O[C@H]3C[C@](C)(O)[C@H](N(C)C)[C@H](C)O3)[C@@H](OC4)[C@H](NC(=O)c3csc1n3)c1nc(cs1)C(=O)N2 (stereo not given in full)
MIC (Staphylococcus aureus): 4 µg/mL (≈ 2.41 µM)
MIC (Enterococcus faecalis): 8 µg/mL (≈ 4.82 µM)
MIC (Streptococcus pneumoniae): 1 µg/mL (≈ 0.602 µM)
solubility [6]: > 2000 µg/mL

CO/C(C)=C1/NC(=O)[C@H]([C@@H](C)O)NC(=O)c2csc(n2)-c2cc(O)c(-c3nc(C(=O)N[C@@H](C)C(=O)NCCCP(=O)([O-])O)cs3)nc2-c2csc(n2)[C@@H]2COC(=O)c3c4c5c(cccc5n3O)COC(=O)[C@@H](O[C@H]3C[C@](C)(O)[C@H](N(C)C)[C@H](C)O3)[C@@H](OC4)[C@H](NC(=O)c3csc1n3)c1nc(cs1)C(=O)N2.[Na+]
MIC (Staphylococcus aureus): 8 µg/mL
solubility [7]: > 1700 µg/mL
MIC (Enterococcus faecalis): 32 µg/mL
MIC (Streptococcus pneumoniae): 0.25 µg/mL

CO/C(C)=C1/NC(=O)[C@H]([C@@H](C)O)NC(=O)c2csc(n2)-c2cc(O)c(-c3nc(C(=O)N[C@@H](C)C(=O)NCCCO)cs3)nc2-c2csc(n2)[C@@H]2COC(=O)c3c4c5c(cccc5n3O)COC(=O)[C@@H](O[C@H]3C[C@](C)(O)[C@H](N(C)C)[C@H](C)O3)[C@@H](OC4)[C@H](NC(=O)c3csc1n3)c1nc(cs1)C(=O)N2
MIC (Staphylococcus aureus): 0.06 µg/mL (≈ 0.0401 µM)
MIC (Enterococcus faecalis): 0.03 µg/mL (≈ 0.02 µM)
ED50 (Mus musculus): 1.25 mg/kg
MIC (Streptococcus pneumoniae): 0.007 µg/mL (≈ 0.00467 µM)
solubility [6]: 2700 µg/mL (≈ 1800 µM)

CO/C(C)=C1/NC(=O)[C@H]([C@@H](C)O)NC(=O)c2csc(n2)-c2cc(O)c(-c3nc(C(=O)N[C@@H](C)C(=O)NCCS(=O)(=O)O)cs3)nc2-c2csc(n2)[C@@H]2COC(=O)c3c4c5c(cccc5n3O)COC(=O)[C@@H](O[C@H]3C[C@](C)(O)[C@H](N(C)C)[C@H](C)O3)[C@@H](OC4)[C@H](NC(=O)c3csc1n3)c1nc(cs1)C(=O)N2
MIC (Staphylococcus aureus): 0.25 µg/mL (≈ 0.162 µM)
solubility [8]: > 2100 µg/mL
MIC (Enterococcus faecalis): 0.25 µg/mL (≈ 0.162 µM)
ED50 (Mus musculus): > 10 mg/kg
MIC (Streptococcus pneumoniae): 0.03 µg/mL (≈ 0.0194 µM)

CO/C(C)=C1/NC(=O)[C@H]([C@@H](C)O)NC(=O)c2csc(n2)-c2cc(O)c(-c3nc(C(=O)N[C@@H](C)C(=O)NCCN(C)C)cs3)nc2-c2csc(n2)[C@@H]2COC(=O)c3c4c5c(cccc5n3O)COC(=O)[C@@H](O[C@H]3C[C@](C)(O)[C@H](N(C)C)[C@H](C)O3)[C@@H](OC4)[C@H](NC(=O)c3csc1n3)c1nc(cs1)C(=O)N2
MIC (Staphylococcus aureus): 0.125 µg/mL (≈ 0.0827 µM)
MIC (Enterococcus faecalis): 0.25 µg/mL (≈ 0.165 µM)
MIC (Streptococcus pneumoniae): 0.125 µg/mL (≈ 0.0827 µM)
solubility [9]: > 2400 µg/mL

CO/C(C)=C1/NC(=O)[C@H]([C@@H](C)O)NC(=O)c2csc(n2)-c2cc(O)c(-c3nc(C(=O)N[C@@H](C)C(=O)NCCCN4CCCC4)cs3)nc2-c2csc(n2)[C@@H]2COC(=O)c3c4c5c(cccc5n3O)COC(=O)[C@@H](O[C@H]3C[C@](C)(O)[C@H](N(C)C)[C@H](C)O3)[C@@H](OC4)[C@H](NC(=O)c3csc1n3)c1nc(cs1)C(=O)N2
MIC (Staphylococcus aureus): 0.25 µg/mL (≈ 0.161 µM)
solubility [5]: > 2600 µg/mL
MIC (Enterococcus faecalis): 0.5 µg/mL (≈ 0.322 µM)
MIC (Streptococcus pneumoniae): 0.25 µg/mL (≈ 0.161 µM)

CO/C(C)=C1/NC(=O)[C@H]([C@@H](C)O)NC(=O)c2csc(n2)-c2cc(O)c(-c3nc(C(=O)N[C@@H](C)C(=O)NCCc4ccc(S(=O)(=O)O)cc4)cs3)nc2-c2csc(n2)[C@@H]2COC(=O)c3c4c5c(cccc5n3O)COC(=O)[C@@H](O[C@H]3C[C@](C)(O)[C@H](N(C)C)[C@H](C)O3)[C@@H](OC4)[C@H](NC(=O)c3csc1n3)c1nc(cs1)C(=O)N2
MIC (Staphylococcus aureus): 0.5 µg/mL (≈ 0.308 µM)
MIC (Enterococcus faecalis): 1 µg/mL (≈ 0.616 µM)
ED50 (Mus musculus): > 10 mg/kg
MIC (Streptococcus pneumoniae): 0.125 µg/mL (≈ 0.077 µM)
solubility [10]: > 1200 µg/mL

C=C(NC(=O)c1csc(-c2nc3c(cc2O)-c2nc(cs2)C(=O)N[C@@H]([C@@H](C)O)C(=O)N/C(=C(\C)OC)c2nc(cs2)C(=O)N[C@@H]2c4nc(cs4)C(=O)N[C@@H](COC(=O)c4c5c6c(cccc6n4O)COC(=O)[C@@H](O[C@H]4C[C@](C)(O)[C@H](N(C)C)[C@H](C)O4)[C@H]2OC5)c2nc-3cs2)n1)C(N)=O [MJ347-81F4 A]
MIC (Staphylococcus aureus): 0.007 µg/mL (≈ 0.00487 µM)
solubility [4]: 340 µg/mL (≈ 237 µM)
MIC (Enterococcus faecalis): 0.03 µg/mL (≈ 0.0209 µM)
ED50 (Mus musculus): 0.8 mg/kg
MIC (Streptococcus pneumoniae): 0.002 µg/mL (≈ 0.00139 µM)
